Test system: TRZSS: wheat, including spring and winter (Triticum aestivum)
Experiment: Post-emergent Test III, herbicidal activity in wheat and barley
Assay type: in vivo
Details: Table 9; dose for 20 percent growth reduction, probit analysis; 21 d
Experimental: (§1) Post-emergent Test III. Seeds of the desired test plant species were planted in Sun Gro MetroMix® 306 planting mixture, which typically has a pH of 6.0 to 6.8 and an organic matter content of about 30 percent, in plastic pots with a surface area of 103.2 square centimeters (cm^2). When required to ensure good germination and healthy plants, a fungicide treatment and/or other chemical or physical treatment was applied. The plants were grown for 7-36 days (d) in a greenhouse with an approximate 14 hour (h) photoperiod which was maintained at about 18° C. during the day and 17° C. during the night. Nutrients and water were added on a regular basis and supplemental lighting was provided with overhead metal halide 1000-Watt lamps as necessary. The plants were employed for testing when they reached the second or third true leaf stage.
(§2) A weighed amount, determined by the highest rate to be tested, of each test compound was placed in a 25 mL glass vial and was dissolved in 4 mL of a 97:3 v/v mixture of acetone and DMSO to obtain concentrated stock solutions. […] The concentrated stock solutions obtained were diluted with 20 mL of an aqueous mixture containing acetone, water, isopropyl alcohol, DMSO, Agri-Dex crop oil concentrate, and X-77 surfactant in a 48:39:10:1.5:1.5:0.02 v/v ratio to obtain spray solutions containing the highest application rates. Additional application rates were obtained by serial dilution of 12 mL of the high rate solution into a solution containing 2 mL of 97:3 v/v mixture of acetone and DMSO and 10 mL of an aqueous mixture containing acetone, water, isopropyl alcohol, DMSO, Agri-Dex crop oil concentrate, and X-77 surfactant in a 48:39:10:1.5:1.5:0.02 v/v ratio to obtain ½×, ¼×, ⅛× and 1/16× rates of the high rate. Compound requirements are based upon a 12 mL application volume at a rate of 187 liters per hectare (L/ha). Formulated compounds were applied to the plant material with an overhead Mandel track sprayer equipped with 8002E nozzles calibrated to deliver 187 L/ha over an application area of 0.503 square meters at a spray height of 18 inches (43 cm) above the average plant canopy height. Control plants were sprayed in the same manner with the solvent blank.
(§3) The treated plants and control plants were placed in a greenhouse as described above and watered by subirrigation to prevent wash-off of the test compounds. After 21 d, the condition of the test plants as compared with that of the untreated plants was determined visually and scored on a scale of 0 to 100 percent where 0 corresponds to no injury and 100 corresponds to complete kill.
(§4) By applying the well-accepted probit analysis as described by J. Berkson in Journal of the American Statistical Society, 48, 565 (1953) and by D. Finney in “Probit Analysis” Cambridge University Press (1952), herbicidal injury of a specific compound at various rates can be used to calculate GR20, GR50, GR80 and GR90 values, which are defined as growth reduction factors that correspond to the effective dose of herbicide required to provide plant growth reduction (GR) of 20 percent, 50 percent, 80 percent and 90 percent, respectively. Probit analysis was applied to data collected from multiple dose rates of individual compounds utilizing the procedures explained in the following examples. The analysis of those dose rates is captured in the following tables.

SMILES | GR20 TRZSS
COC(=O)c1nc(-c2ccc(Br)cc2)c(Cl)c(N)c1Cl [Compound 47] | 1 g ai/ha

Same assay, conditions: Triticum aestivum, post-emergence, 504 h; Table 9; 35 g ai/ha; post-emergent; 21 d; read-out: Visual Growth Reduction (%) 21 Days After Application TRZSS

SMILES | pest or weed control at 35 g/ha
COC(=O)c1nc(-c2ccc(Br)cc2)c(Cl)c(N)c1Cl [Compound 47] | 85 to 94%

Same assay, conditions: Triticum aestivum, post-emergence, 504 h; Table 9; 70 g ai/ha; post-emergent; 21 d; read-out: Visual Growth Reduction (%) 21 Days After Application TRZSS

SMILES | pest or weed control at 70 g/ha
COC(=O)c1nc(-c2ccc(Br)cc2)c(Cl)c(N)c1Cl [Compound 47] | 95 to 100%

Same assay, conditions: Triticum aestivum, post-emergence, 504 h; Table 9; 140 g ai/ha; post-emergent; 21 d; read-out: Visual Growth Reduction (%) 21 Days After Application TRZSS

SMILES | pest or weed control at 140 g/ha
COC(=O)c1nc(-c2ccc(Br)cc2)c(Cl)c(N)c1Cl [Compound 47] | 95 to 100%

Test system: LOLSS: ryegrass including, Italian ryegrass (Lolium multiflorum), rigid ryegrass (Lolium rigidum), annual ryegrass (Lolium multiflorum subsp. Gaudini)
Experiment: as above
Assay type: in vivo
Details: Table 9; dose for 50 percent growth reduction, probit analysis; 21 d
Experimental: as §1, §2, §3, §4

SMILES | GR50 LOLSS
COC(=O)c1nc(-c2ccc(Br)cc2)c(Cl)c(N)c1Cl [Compound 47] | 80 g ai/ha

Same assay, conditions: Table 9; dose for 80 percent growth reduction, probit analysis; 21 d

SMILES | GR80 LOLSS
COC(=O)c1nc(-c2ccc(Br)cc2)c(Cl)c(N)c1Cl [Compound 47] | >140 g ai/ha

Test system: APESV: bentgrass (Apera spica-venti)
Experiment: as above
Assay type: in vivo
Details: Apera spica-venti, post-emergence, 504 h; Table 9; 35 g ai/ha; post-emergent; 21 d; read-out: Visual Growth Reduction (%) 21 Days After Application APESV
Experimental: as §1, §2, §3, §4

SMILES | pest or weed control at 35 g/ha
COC(=O)c1nc(-c2ccc(Br)cc2)c(Cl)c(N)c1Cl [Compound 47] | 95 to 100%

Same assay, conditions: Apera spica-venti, post-emergence, 504 h; Table 9; 70 g ai/ha; post-emergent; 21 d; read-out: Visual Growth Reduction (%) 21 Days After Application APESV

SMILES | pest or weed control at 70 g/ha
COC(=O)c1nc(-c2ccc(Br)cc2)c(Cl)c(N)c1Cl [Compound 47] | 95 to 100%

Same assay, conditions: Apera spica-venti, post-emergence, 504 h; Table 9; 140 g ai/ha; post-emergent; 21 d; read-out: Visual Growth Reduction (%) 21 Days After Application APESV

SMILES | pest or weed control at 140 g/ha
COC(=O)c1nc(-c2ccc(Br)cc2)c(Cl)c(N)c1Cl [Compound 47] | 95 to 100%

Same assay, conditions: Table 9; dose for 50 percent growth reduction, probit analysis; 21 d

SMILES | GR50 APESV
COC(=O)c1nc(-c2ccc(Br)cc2)c(Cl)c(N)c1Cl [Compound 47] | 10 g ai/ha

Same assay, conditions: Table 9; dose for 80 percent growth reduction, probit analysis; 21 d

SMILES | GR80 APESV
COC(=O)c1nc(-c2ccc(Br)cc2)c(Cl)c(N)c1Cl [Compound 47] | 14 g ai/ha

Test system: HORSS: barley, including spring and winter (Hordeum vulgare)
Experiment: as above
Assay type: in vivo
Details: Hordeum vulgare, post-emergence, 504 h; Table 9; 35 g ai/ha; post-emergent; 21 d; read-out: Visual Growth Reduction (%) 21 Days After Application HORSS
Experimental: as §1, §2, §3, §4

SMILES | pest or weed control at 35 g/ha
COC(=O)c1nc(-c2ccc(Br)cc2)c(Cl)c(N)c1Cl [Compound 47] | 95 to 100%

Same assay, conditions: Hordeum vulgare, post-emergence, 504 h; Table 9; 70 g ai/ha; post-emergent; 21 d; read-out: Visual Growth Reduction (%) 21 Days After Application HORSS

SMILES | pest or weed control at 70 g/ha
COC(=O)c1nc(-c2ccc(Br)cc2)c(Cl)c(N)c1Cl [Compound 47] | 95 to 100%

Same assay, conditions: Hordeum vulgare, post-emergence, 504 h; Table 9; 140 g ai/ha; post-emergent; 21 d; read-out: Visual Growth Reduction (%) 21 Days After Application HORSS

SMILES | pest or weed control at 140 g/ha
COC(=O)c1nc(-c2ccc(Br)cc2)c(Cl)c(N)c1Cl [Compound 47] | 95 to 100%

Same assay, conditions: Table 9; dose for 20 percent growth reduction, probit analysis; 21 d

SMILES | GR20 HORSS
COC(=O)c1nc(-c2ccc(Br)cc2)c(Cl)c(N)c1Cl [Compound 47] | 1 g ai/ha

Test system: KCHSC: kochia (Kochia scoparia)
Experiment: as above
Assay type: in vivo
Details: Bassia scoparia, post-emergence, 504 h; Table 9; 35 g ai/ha; post-emergent; 21 d; read-out: Visual Growth Reduction (%) 21 Days After Application KCHSC
Experimental: as §1, §2, §3, §4

SMILES | pest or weed control at 35 g/ha
COC(=O)c1nc(-c2ccc(Br)cc2)c(Cl)c(N)c1Cl [Compound 47] | 85 to 94%

Same assay, conditions: Bassia scoparia, post-emergence, 504 h; Table 9; 70 g ai/ha; post-emergent; 21 d; read-out: Visual Growth Reduction (%) 21 Days After Application KCHSC

SMILES | pest or weed control at 70 g/ha
COC(=O)c1nc(-c2ccc(Br)cc2)c(Cl)c(N)c1Cl [Compound 47] | 75 to 84%

Same assay, conditions: Bassia scoparia, post-emergence, 504 h; Table 9; 140 g ai/ha; post-emergent; 21 d; read-out: Visual Growth Reduction (%) 21 Days After Application KCHSC

SMILES | pest or weed control at 140 g/ha
COC(=O)c1nc(-c2ccc(Br)cc2)c(Cl)c(N)c1Cl [Compound 47] | 95 to 100%

Same assay, conditions: Table 9; dose for 50 percent growth reduction, probit analysis; 21 d

SMILES | GR50 KCHSC
COC(=O)c1nc(-c2ccc(Br)cc2)c(Cl)c(N)c1Cl [Compound 47] | 20 g ai/ha

Same assay, conditions: Table 9; dose for 80 percent growth reduction, probit analysis; 21 d

SMILES | GR80 KCHSC
COC(=O)c1nc(-c2ccc(Br)cc2)c(Cl)c(N)c1Cl [Compound 47] | 45 g ai/ha

Test system: not listed separately
Experiment: as above
Assay type: in vivo, Lolium multiflorum, Lolium rigidum
Details: Lolium multiflorum, post-emergence, 504 h; Table 9; 35 g ai/ha; post-emergent; 21 d; read-out: Visual Growth Reduction (%) 21 Days After Application LOLSS
Experimental: as §1, §2, §3, §4

SMILES | pest or weed control at 35 g/ha
COC(=O)c1nc(-c2ccc(Br)cc2)c(Cl)c(N)c1Cl [Compound 47] | 0 to 29%

Same assay, conditions: Lolium multiflorum, post-emergence, 504 h; Table 9; 70 g ai/ha; post-emergent; 21 d; read-out: Visual Growth Reduction (%) 21 Days After Application LOLSS

SMILES | pest or weed control at 70 g/ha
COC(=O)c1nc(-c2ccc(Br)cc2)c(Cl)c(N)c1Cl [Compound 47] | 45 to 59%

Same assay, conditions: Lolium multiflorum, post-emergence, 504 h; Table 9; 140 g ai/ha; post-emergent; 21 d; read-out: Visual Growth Reduction (%) 21 Days After Application LOLSS

SMILES | pest or weed control at 140 g/ha
COC(=O)c1nc(-c2ccc(Br)cc2)c(Cl)c(N)c1Cl [Compound 47] | 60 to 74%

Test system: SETVI: green foxtail (Setaria viridis)
Experiment: as above
Assay type: in vivo
Details: Setaria viridis, post-emergence, 504 h; Table 9; 35 g ai/ha; post-emergent; 21 d; read-out: Visual Growth Reduction (%) 21 Days After Application SETVI
Experimental: as §1, §2, §3, §4

SMILES | pest or weed control at 35 g/ha
COC(=O)c1nc(-c2ccc(Br)cc2)c(Cl)c(N)c1Cl [Compound 47] | 0 to 29%

Same assay, conditions: Setaria viridis, post-emergence, 504 h; Table 9; 70 g ai/ha; post-emergent; 21 d; read-out: Visual Growth Reduction (%) 21 Days After Application SETVI

SMILES | pest or weed control at 70 g/ha
COC(=O)c1nc(-c2ccc(Br)cc2)c(Cl)c(N)c1Cl [Compound 47] | 75 to 84%

Same assay, conditions: Setaria viridis, post-emergence, 504 h; Table 9; 140 g ai/ha; post-emergent; 21 d; read-out: Visual Growth Reduction (%) 21 Days After Application SETVI

SMILES | pest or weed control at 140 g/ha
COC(=O)c1nc(-c2ccc(Br)cc2)c(Cl)c(N)c1Cl [Compound 47] | 85 to 94%

Same assay, conditions: Table 9; dose for 50 percent growth reduction, probit analysis; 21 d

SMILES | GR50 SETVI
COC(=O)c1nc(-c2ccc(Br)cc2)c(Cl)c(N)c1Cl [Compound 47] | 51 g ai/ha

Same assay, conditions: Table 9; dose for 80 percent growth reduction, probit analysis; 21 d

SMILES | GR80 SETVI
COC(=O)c1nc(-c2ccc(Br)cc2)c(Cl)c(N)c1Cl [Compound 47] | 104 g ai/ha

Reference: patent US9113629B2, “4-amino-6-(4-substituted-phenyl)-picolinates and 6-amino-2-(4-substituted-phenyl)-pyrimidine-4-carboxylates and their use as herbicides” (DOW AGROSCIENCES LLC, priority 2013, dated 2015)
